Experimental data reported in patent US6358885B1, “Substituted phenylheterocyclic herbicides” (Mississippi State University, priority 1992, dated 2002).

System: speedwell
Experiment: Test C preemergence/postemergence greenhouse plant response rating 0 to 100
Assay type: in vivo, Veronica persica
Conditions: for Plant response rating Speedwell: 0 to 100 scale
Excerpt: The compounds evaluated in this test were formulated in a non-phytoxic solvent and applied to the soil surface before plant seedlings emerged (preemergence application), to water that covered the soil surface (flood application), and to plants that were in the one-to-four leaf stage (postemergence application). A sandy loam soil was used for the preemergence and postemergence tests, while a silt loam soil was used in the flood test. Water depth was approximately 2.5 cm for the flood test and was maintained at this level for the duration of the test. Plant species in the preemergence and postemergence tests consisted of barley (Hordeum vulgare), bedstraw (Galium aparine), blackgrass (Alopecurus myosuroides), chickweed (Stellaria media), corn (Zea mays), cotton (Gossypium hirsutum), crabgrass (Digitaria sanguinalis), downy brome (Bromus tectorum), giant foxtail (Setaria faberii), lambsquarters (Chenopodium album), morningglory (Ipomoea hederacea), pigweed ([…]), rape (Brassica napus), ryegrass (Lolium multiflorum), sorghum (Sorghum bicolor), soybean (Glycine max), speedwell (Veronica persica), sugar beet (Beta vulgaris), velvetleaf (Abutilon theophrasti), wheat (Triticum aestivum), wild buckwheat (Polygonum convolvulus), and wild oat (Avena fatua). All plant species were planted one day before application of the compound for the preemergence portion-of this test. Plantings of these species were adjusted to produce plants of appropriate size for the post-emergence portion of the test. […] All plant species were grown using normal greenhouse practices. Visual evaluations of injury expressed on treated plants, when compared to untreated controls, were recorded approximately fourteen to twenty one days after application of the test compound. […] A dash (-) response means no test result.

Structure (SMILES): CC(C)OC(=O)COc1cc(-c2nn3c(c2Cl)CCCC3)c(F)cc1Cl [Compound 39]
- Plant response rating Speedwell (POSTEMERGENCE, 62 g/ha): 95
- Plant response rating Speedwell (POSTEMERGENCE, 125 g/ha): 100
- Plant response rating (0 to 100), Speedwell (Rate 16 g/ha, POSTEMERGENCE): 90
- Plant response rating (0 to 100), Speedwell (Rate 31 g/ha, POSTEMERGENCE): 90

Structure (SMILES): CCOCOc1cc(-c2nn3c(c2Cl)CCCC3)c(F)cc1Cl [Compound 59]
- Plant response rating Speedwell (POSTEMERGENCE, 125 g/ha): 100
- Plant response rating (0 to 100), Speedwell (POSTEMERGENCE, Rate 2 g/ha): 100
- Plant response rating Speedwell (PREEMERGENCE, 125 g/ha): 100
- Plant response rating (0 to 100), Speedwell (Rate 8 g/ha, POSTEMERGENCE): 100
- Plant response rating (0 to 100), Speedwell (Rate 8 g/ha, PREEMERGENCE): 50
- Plant response rating (0 to 100), Speedwell (Rate 31 g/ha, POSTEMERGENCE): 100
- Plant response rating (0 to 100), Speedwell (Rate 31 g/ha, PREEMERGENCE): 100

Structure (SMILES): C#CC(C)Oc1cc(-c2nn3c(c2Br)CCCC3)c(F)cc1Cl (stereo not drawn) [Compound 66]
- Plant response rating Speedwell (POSTEMERGENCE, 62 g/ha): 100
- Plant response rating Speedwell (POSTEMERGENCE, 250 g/ha): 100
- Plant response rating (0 to 100), Speedwell (POSTEMERGENCE, Rate 4 g/ha): 100
- Plant response rating Speedwell (PREEMERGENCE, 250 g/ha): 100
- Plant response rating (0 to 100), Speedwell (PREEMERGENCE, Rate 4 g/ha): 0
- Plant response rating (0 to 100), Speedwell (Rate 16 g/ha, POSTEMERGENCE): 100
- Plant response rating (0 to 100), Speedwell (Rate 16 g/ha, PREEMERGENCE): 90

Structure (SMILES): COCN1C(=O)COc2cc(F)c(-c3nn4c(c3Br)CCCC4)cc21 [Compound 67]
- Plant response rating Speedwell (POSTEMERGENCE, 62 g/ha): 100
- Plant response rating (0 to 100), Speedwell (POSTEMERGENCE, Rate 1 g/ha): 90
- Plant response rating (0 to 100), Speedwell (POSTEMERGENCE, Rate 4 g/ha): 100
- Plant response rating (0 to 100), Speedwell (Rate 16 g/ha, POSTEMERGENCE): 100

Structure (SMILES): C#CCN1C(=O)COc2cc(F)c(-c3nn4c(c3Br)CCCC4)cc21 [Compound 56]
- Plant response rating Speedwell (POSTEMERGENCE, 62 g/ha): 100
- Plant response rating (0 to 100), Speedwell (POSTEMERGENCE, Rate 1 g/ha): 100
- Plant response rating (0 to 100), Speedwell (POSTEMERGENCE, Rate 4 g/ha): 100
- Plant response rating (0 to 100), Speedwell (Rate 16 g/ha, POSTEMERGENCE): 100

Structure (SMILES): CCCN1C(=O)COc2cc(F)c(-c3nn4c(c3Br)CCCC4)cc21 [Compound 63]
- Plant response rating Speedwell (PREEMERGENCE, 250 g/ha): 100
- Plant response rating (0 to 100), Speedwell (PREEMERGENCE, Rate 4 g/ha): 0
- Plant response rating (0 to 100), Speedwell (Rate 16 g/ha, PREEMERGENCE): 90

Structure (SMILES): C#CC(C)N1C(=O)COc2cc(F)c(-c3nn4c(c3Cl)CCCC4)cc21 (stereo not drawn) [Compound 50]
- Plant response rating Speedwell (POSTEMERGENCE, 62 g/ha): 100
- Plant response rating (0 to 100), Speedwell (POSTEMERGENCE, Rate 1 g/ha): 0
- Plant response rating (0 to 100), Speedwell (POSTEMERGENCE, Rate 4 g/ha): 70
- Plant response rating (0 to 100), Speedwell (Rate 16 g/ha, POSTEMERGENCE): 100

Structure (SMILES): CCN1C(=O)COc2cc(F)c(-c3nn4c(c3Cl)CCCC4)cc21 [Compound 54]
- Plant response rating Speedwell (POSTEMERGENCE, 62 g/ha): 100
- Plant response rating (0 to 100), Speedwell (POSTEMERGENCE, Rate 1 g/ha): 100
- Plant response rating (0 to 100), Speedwell (POSTEMERGENCE, Rate 4 g/ha): 100
- Plant response rating (0 to 100), Speedwell (PREEMERGENCE, Rate 1 g/ha): 50
- Plant response rating (0 to 100), Speedwell (PREEMERGENCE, Rate 4 g/ha): 100
- Plant response rating (0 to 100), Speedwell (Rate 16 g/ha, POSTEMERGENCE): 100
- Plant response rating (0 to 100), Speedwell (Rate 16 g/ha, PREEMERGENCE): 100

Structure (SMILES): COCOc1cc(-c2nn3c(c2Cl)CCCC3)c(F)cc1Cl [Compound 58]
- Plant response rating Speedwell (POSTEMERGENCE, 125 g/ha): 100
- Plant response rating (0 to 100), Speedwell (POSTEMERGENCE, Rate 2 g/ha): 40
- Plant response rating Speedwell (PREEMERGENCE, 125 g/ha): 100
- Plant response rating (0 to 100), Speedwell (PREEMERGENCE, Rate 2 g/ha): 0
- Plant response rating (0 to 100), Speedwell (Rate 8 g/ha, POSTEMERGENCE): 70
- Plant response rating (0 to 100), Speedwell (Rate 8 g/ha, PREEMERGENCE): 100
- Plant response rating (0 to 100), Speedwell (Rate 31 g/ha, POSTEMERGENCE): 100
- Plant response rating (0 to 100), Speedwell (Rate 31 g/ha, PREEMERGENCE): 100

Structure (SMILES): CC(C)Oc1cc(-c2nn3c(c2Br)CCCC3)c(F)cc1Cl [Compound 38]
- Plant response rating (0 to 100), Speedwell (PREEMERGENCE, Rate 1 g/ha): 0
- Plant response rating (0 to 100), Speedwell (PREEMERGENCE, Rate 4 g/ha): 0
- Plant response rating (0 to 100), Speedwell (Rate 16 g/ha, PREEMERGENCE): 0

Structure (SMILES): Fc1cc(Cl)ccc1-c1nn2c(c1Br)CCCC2 [Compound 52]
- Plant response rating Speedwell (POSTEMERGENCE, 125 g/ha): 100
- Plant response rating Speedwell (PREEMERGENCE, 125 g/ha): 100
- Plant response rating (0 to 100), Speedwell (PREEMERGENCE, Rate 2 g/ha): 0
- Plant response rating (0 to 100), Speedwell (Rate 8 g/ha, POSTEMERGENCE): 30
- Plant response rating (0 to 100), Speedwell (Rate 8 g/ha, PREEMERGENCE): 0
- Plant response rating (0 to 100), Speedwell (Rate 31 g/ha, POSTEMERGENCE): 100
- Plant response rating (0 to 100), Speedwell (Rate 31 g/ha, PREEMERGENCE): 20

Structure (SMILES): C=CCN1C(=O)COc2cc(F)c(-c3nn4c(c3Br)CCCC4)cc21 [Compound 41]
- Plant response rating Speedwell (POSTEMERGENCE, 62 g/ha): 100
- Plant response rating Speedwell (POSTEMERGENCE, 125 g/ha): 100
- Plant response rating (0 to 100), Speedwell (Rate 16 g/ha, POSTEMERGENCE): 100
- Plant response rating (0 to 100), Speedwell (Rate 31 g/ha, POSTEMERGENCE): 100

Structure (SMILES): COCN1C(=O)COc2cc(F)c(-c3nn4c(c3Cl)CCCC4)cc21 [Compound 55]
- Plant response rating Speedwell (POSTEMERGENCE, 62 g/ha): 100
- Plant response rating (0 to 100), Speedwell (POSTEMERGENCE, Rate 1 g/ha): 60
- Plant response rating (0 to 100), Speedwell (POSTEMERGENCE, Rate 4 g/ha): 100
- Plant response rating (0 to 100), Speedwell (Rate 16 g/ha, POSTEMERGENCE): 100

Structure (SMILES): Fc1cc(Cl)c(OCCCl)cc1-c1nn2c(c1Cl)CCCC2 [Compound 49]
- Plant response rating Speedwell (POSTEMERGENCE, 62 g/ha): 100
- Plant response rating Speedwell (POSTEMERGENCE, 250 g/ha): 100
- Plant response rating (0 to 100), Speedwell (POSTEMERGENCE, Rate 4 g/ha): 85
- Plant response rating (0 to 100), Speedwell (Rate 16 g/ha, POSTEMERGENCE): 100

Structure (SMILES): C=C(Cl)COc1cc(-c2nn3c(c2Cl)CCCC3)c(F)cc1Cl [Compound 40]
- Plant response rating Speedwell (POSTEMERGENCE, 62 g/ha): 100
- Plant response rating Speedwell (POSTEMERGENCE, 125 g/ha): 100
- Plant response rating (0 to 100), Speedwell (Rate 16 g/ha, POSTEMERGENCE): 90
- Plant response rating (0 to 100), Speedwell (Rate 31 g/ha, POSTEMERGENCE): 95

Structure (SMILES): CCOC(=O)COc1cc(-c2nn3c(c2Cl)CCCC3)c(F)cc1Cl [Compound 42]
- Plant response rating Speedwell (POSTEMERGENCE, 62 g/ha): 100
- Plant response rating Speedwell (POSTEMERGENCE, 125 g/ha): 100
- Plant response rating (0 to 100), Speedwell (Rate 16 g/ha, POSTEMERGENCE): 95
- Plant response rating (0 to 100), Speedwell (Rate 31 g/ha, POSTEMERGENCE): 100
